Reference: ChEMBL document CHEMBL3785076, “Disposition of valproic acid in man” (Eur J Clin Pharmacol, 1977)

What was measured:
[1] = Plasma concentration in healthy human subjects (6 subjects) at 600 mg, po administered as single enteric-coated compound dose measured after 10 hrs by GLC method; assay type: ADME, organism-based
Homo sapiens [2] = experiment: Drug lag time in healthy human subjects (6 subjects) at 600 mg, po administered as single enteric-coated compound dose measured by GLC method; assay type: ADME, organism-based; conditions: in vivo
Homo sapiens [3] = experiment: Mean steady state plasma concentration in healthy human subjects (6 subjects) at 1200 mg, po for 12 days administered as enteric-coated compound dose by GLC method; assay type: ADME, organism-based; conditions: in vivo, 288 h
[4] = Ratio of urinary excretion of valproic acid to urinary excretion of VPA-conjugates in healthy human subjects (6 subjects) at 600 mg, po administered as single enteric-coated compound; assay type: ADME, organism-based, Urine; conditions: in vivo
[5] = Half life in human measured over 24 hrs; assay type: ADME, organism-based; conditions: in vivo
[6] = Terminal half life in healthy human subjects (6 subjects) at 600 mg, po administered as single enteric-coated compound dose measured by GLC method; assay type: ADME, organism-based; conditions: in vivo, read-out: beta t1/2 (converted)
[7] = Plasma protein binding in healthy human subjects (6 subjects) assessed as unbound fraction level measured under steady state conditions by equilibrium dialysis method; assay type: ADME, cell-free
[8] = Total plasma clearance in healthy human subjects (6 subjects) at 600 mg, po administered as single enteric-coated compound dose measured by GLC method; assay type: ADME, organism-based
[9] = Plasma concentration in healthy human subjects (6 subjects) at 600 mg, po administered as single enteric-coated compound dose measured after 4 hrs by GLC method; assay type: ADME, organism-based
Homo sapiens [10] = experiment: Apparent volume of distribution in healthy human subjects (6 subjects) at 600 mg, po administered as single enteric-coated compound dose measured by GLC method; assay type: ADME, organism-based; conditions: in vivo
[11] = Plasma concentration in healthy human subjects (6 subjects) at 600 mg, po administered as single enteric-coated compound dose measured after 48 hrs by GLC method; assay type: ADME, organism-based
[12] = Plasma protein binding in healthy human subjects (6 subjects) measured under steady state conditions by equilibrium dialysis method; assay type: ADME, cell-free; conditions: read-out: PPB (converted)
[13] = Half life at steady state in healthy human subjects (6 subjects) at 1200 mg, po for 12 days administered as enteric-coated compound dose by GLC method; assay type: ADME, organism-based; conditions: in vivo, read-out: t1/2ss (converted)
[14] = Plasma concentration in healthy human subjects (6 subjects) at 600 mg, po administered as single enteric-coated compound dose measured after 3 hrs by GLC method; assay type: ADME, organism-based
[15] = Plasma concentration in healthy human subjects (6 subjects) at 600 mg, po administered as single enteric-coated compound dose measured after 24 hrs by GLC method; assay type: ADME, organism-based
[16] = Plasma concentration in healthy human subjects (6 subjects) at 600 mg, po administered as single enteric-coated compound dose measured after 72 hrs by GLC method; assay type: ADME, organism-based
[17] = Plasma concentration in healthy human subjects (6 subjects) at 600 mg, po administered as single enteric-coated compound dose measured after 2 hrs by GLC method; assay type: ADME, organism-based
[18] = AUC in healthy human subjects (6 subjects) at 600 mg, po administered as single enteric-coated compound dose measured by GLC method; assay type: ADME, organism-based; conditions: in vivo
[19] = Drug concentration in saliva of healthy human subjects (6 subjects) at 1200 mg, po for 12 days administered as enteric-coated compound dose measured under steady state conditions by GLC method relative to plasma drug level; assay type: ADME, organism-based; conditions: in vivo, 288 h
[20] = Tmax in healthy human subjects (6 subjects) at 600 mg, po administered as single enteric-coated compound dose measured by GLC method; assay type: ADME, organism-based; conditions: in vivo
[21] = Ratio of urinary excretion of valproic acid to urinary excretion of VPA-conjugates in healthy human subjects (6 subjects) at 1200 mg, po for 12 days administered as enteric-coated compound dose measured during 24 hrs relative to total drug excretion; assay type: ADME, organism-based, Urine; conditions: in vivo
[22] = Plasma concentration in healthy human subjects (6 subjects) at 600 mg, po administered as single enteric-coated compound dose measured after 30 hrs by GLC method; assay type: ADME, organism-based
[23] = Elimination rate constant during beta-phase in healthy human subjects (6 subjects) at 600 mg, po administered as single enteric-coated compound dose measured by GLC method; assay type: ADME, organism-based; conditions: in vivo
[24] = Plasma concentration in healthy human subjects (6 subjects) at 600 mg, po administered as single enteric-coated compound dose measured after 6 hrs by GLC method; assay type: ADME, organism-based
[25] = Drug concentration in saliva of healthy human subjects (6 subjects) at 600 mg, po administered as single enteric-coated compound; assay type: ADME, organism-based; conditions: in vivo
[26] = Steady state plasma concentration before morning dose in healthy human subjects (6 subjects) at 1200 mg, po for 12 days administered as enteric-coated compound dose by GLC method; assay type: ADME, organism-based; conditions: read-out: Cpss

CCCC(CCC)C(=O)[O-].[Na+] [VALPROATE SODIUM]
concentration at 10 h [1]: 38400 ng/mL | Tlag (Homo sapiens [2]): 1.3 h | Cpss (Homo sapiens [3]): 81.3 µg/mL | Ratio [4]: 0.158 | half-life [5]: 8 h | half-life [6]: 15.9 h | fraction unbound [7]: 0.067 | CL/F [8]: 0.107 mL/min/kg | concentration at 4 h [9]: 58100 ng/mL | Vbeta (Homo sapiens [10]): 0.15 L/kg | concentration at 48 h [11]: 6500 ng/mL | fraction unbound [12]: 0.067 | half-life [13]: 17.3 h | concentration at 3 h [14]: 42800 ng/mL | concentration at 24 h [15]: 17600 ng/mL | concentration at 72 h [16]: 2500 ng/mL | concentration at 2 h [17]: 10300 ng/mL | AUC [18]: 1210 µg·h/mL | Drug uptake [19]: 1.3% | Tmax [20]: 3.7 h | Ratio [21]: 1.127 | concentration at 30 h [22]: 14000 ng/mL | k el [23]: 1.25e-05 s⁻¹ | concentration at 6 h [24]: 53200 ng/mL | Drug uptake [25]: < 0.5 µg/mL | concentration at 288 h [26]: 75300 ng/mL
